According to patent US5189169A (priority 1991, dated 1993):
“And” between values parts separate entries of the source, which are not always exact repeats. Equal entries are not always repeated.

Legend:
[1] = test system: four grassy weeds: wild oat, watergrass, green foxtail and crabgrass; assay: Pre-emergence herbicidal activity, grassy weeds (Table III); assay type: in vivo; conditions: 2.24 kg/ha, 2-3 weeks after treatment
Description: (§1) The herbicidal effect was observed by comparing the extent of weed control in test flats treated with the compounds against that occurring in similar non-treated control flats. All were applied at 3.57 lb/A (4 kg/ha) to pre-emergence and post-emergence screening flats. An 80 gal/A (748.3 1/ha) spray volume was utilized. Post-emergence flats were seeded 12 days prior to treatment. Pre-emergence flats were seeded one day prior to treatment. Overhead watering of pre-emergence flats and soil surface watering of post-emergence flats, so as to avoid wetting the foliage, were carried out for the duration of the test.
(§2) Weed seeds were planted in a flat at a seed depth of 0.5 inch (1.3 cm). Soil for flats was prepared using loam soil fortified with 17-17-17 fertilizer (N-P2 O5 -K2 O on a weight basis) and Captan 80W fungicide. The test weeds were as follows:
(§3) The spray solutions were prepared by dissolving 240 mg of test compound in 20 ml of acetone containing 1% polyoxyethylene sorbitan monolaurate emulsifier, then adding 20 ml of water to the resulting solution. The spray solutions were applied using a linear spray table. Pre-emergence flats are raised to the level of the post-emergence foliage canopy by setting the flats on a wooden block.
(§4) The degree of weed control was visually assessed and recorded as percentage control compared to the growth of the same species in an untreated check flat of the same age. The rating scale ranges from 0 to 100%, where 0 equals no effect with plant growth equal to the untreated control, and 100 equals complete kill.
(§5) Compounds 68 to 145 in Table I were tested generally similarly to Compounds No. 1 to 67 with the following differences: The rate of application was 2 lb/acre (2.24 kg/ha), no 6-day evaluations were made, and the weeds were:
(§6) Four grassy weeds: wild oat, watergrass, green foxtail and crabgrass (Digitaria sanguinalis);
(§7) Ratings were taken 2-3 weeks after treatment.

[2] = test system: three broadleaf weeds: wild mustard, redroot pigweed and curly dock; assay: Pre-emergence herbicidal activity, broadleaf weeds (Table III); assay type: in vivo, Brassica kaber, Amaranthus retroflexus, Rumex crispus; conditions: 2.24 kg/ha, 2-3 weeks after treatment
Description: as §1, §2, §3, §4, §5
(§8) Three broadleaf weeds: wild mustard, redroot pigweed (Amaranthus retroflexus) and curly dock (Rumex crispus).
as §7

[3] = test system: four grassy weeds: wild oat, watergrass, green foxtail and crabgrass; assay: Post-emergence herbicidal activity, grassy weeds (Table III); assay type: in vivo; conditions: 2.24 kg/ha, 2-3 weeks after treatment
Description: as §1, §2, §3, §4, §5, §6, §7

[4] = test system: three broadleaf weeds: wild mustard, redroot pigweed and curly dock; assay: Post-emergence herbicidal activity, broadleaf weeds (Table III); assay type: in vivo, Brassica kaber, Amaranthus retroflexus, Rumex crispus; conditions: 2.24 kg/ha, 2-3 weeks after treatment
Description: as §1, §2, §3, §4, §5, §8, §7

[5] = test system: three grassy weeds (wild oat, watergrass, foxtail); parameters: species or system Avena fatua, Echinochloa crusgalli, Setaria viridis; conditions: in vivo
[6] = test system: three broadleaf weeds (morning glory, mustard, velvetleaf); parameters: species or system Ipomoea purpurea, Brassica kaber, Abutilon theophrasti; conditions: in vivo
yellow nutsedge [7] = test system: yellow nutsedge; parameters: species or system Cyperus esculentus; conditions: in vivo
[8] = test system: three broadleaf weeds (morning glory, mustard, velvetleaf); parameters: species or system Ipomoea purpurea, Brassica kaber, Abutilon theophrasti; conditions: in vivo; remark: listed apart in the source
yellow nutsedge [9] = test system: yellow nutsedge; parameters: species or system Cyperus esculentus; conditions: in vivo; remark: listed apart in the source

SMILES	% Control, Pre-Emergence, GR Avg. [1] [%]	% Control, Pre-Emergence, BL Avg. [2] [%]	% Control, Post-Emergence, GR Avg. [3] [%]	% Control, Post-Emergence, BL Avg. [4] [%]	% Control, Pre-emergence, GR avg. [5] [%]	% Control, Pre-emergence, BL avg. [6] [%]	% Control, Pre-emergence, NS (yellow nutsedge [7]) [%]	% Control, Post-emergence, BL avg. [8]	% Control, Post-emergence, NS (yellow nutsedge [9])
CCCN(CCC)P(=O)(SCc1ccccc1)N(CCC)CCC [Compound 95]	5	13	55	80	–	–	–	–	–
CCCN(CCC)P(=O)(SC(C)CC)N1CC(CC)CCC1C (centres unmarked) [Compound 98]	0	33	61	90	–	–	–	–	–
CCCCN(CCCC)P(=O)(SC(C)CC)N(C)C (centres unmarked) [Compound 111]	10	10	72	99	–	–	–	–	–
C=CCN(CC=C)P(=O)(SCC)N(CCC)CCC (centres unmarked) [Compound 75]	0	0	62	98	–	–	–	–	–
CCCCSP(=O)(N(CCCC)CCCC)N(CCCC)CCCC [Compound 83]	5	7	82	99	–	–	–	–	–
CCCCN(CCCC)P(=O)(SC(C)CC)N(CC)CC (centres unmarked) [Compound 102]	30	40	70	99	–	–	–	–	–
C=CCN(CC=C)P(=O)(SCCCC)N(CCC)CCC (centres unmarked) [Compound 77]	0	0	53	99	–	–	–	–	–
CCCN(CCC)P(=O)(SC(C)C)N(CCC)CCC [Compound 79]	35	50	85	99	–	–	–	–	–
CCCN(CCC)P(=O)(SC(C)C)N1CC(CC)CCC1C (centres unmarked) [Compound 97]	0	20	67	86	–	–	–	–	–
CCCCN(CCCC)P(=O)(SCC)N(CCC)CCC (centres unmarked) [Compound 123]	0	0	65	89	–	–	–	–	–
CCCCN(CCCC)P(=O)(SCC)N(CC)CC (centres unmarked) [Compound 84]	5	13	75	99	–	–	–	–	–
CCCCCCSP(=O)(N(CCC)CCC)N(CCC)CCC [Compound 116]	0	10	53	96	–	–	–	–	–
CCCN(CCC)P(=O)(SCC)N(CCC)CCC [Compound 70]	5	10	82	99	–	–	–	–	–
CCCN(CCC)P(=O)(SCC)N(C)c1ccccc1 (centres unmarked) [Compound 119]	0	0	30	67	–	–	–	–	–
CCCCN(CCCC)P(=O)(SCC)N(CCCC)CCCC [Compound 82]	0	0	75	99	–	–	–	–	–
CCCCN(CC)P(=O)(SCCC)N(CCC)CCC (centres unmarked) [Compound 89]	0	7	90	100	–	–	–	–	–
CCCSP(=O)(N(CCC)CCC)N(C)c1ccc(F)cc1C (centres unmarked) [Compound 64]	–	–	–	–	3	0	0	85% and 93%	0% and 5%
CCCN(CCC)P(=O)(Sc1cccc(Cl)c1)N(CCC)CCC [Compound 60]	–	–	–	–	0	13	0	75% and 73%	0%
CCCSP(=O)(N(CCC)CCC)N(CC)c1ccc(F)cc1 (centres unmarked) [Compound 54]	–	–	–	–	0	8	0	100%	0%
CCCCCN(CCCCC)P(=O)(SCCC)N(C)c1ccc(Cl)cc1 (centres unmarked) [Compound 17]	–	–	–	–	57	33	0	50% and 43%	10% and 0%
CCCCN(c1ccc(F)cc1)P(=O)(SCCC)N(CCC)CCC (centres unmarked) [Compound 55]	–	–	–	–	13	3	5	90% and 86%	0%
CCCSP(=O)(N(CCC)CCC)N(C)c1ccc(OC(F)(F)F)c(Cl)c1 (centres unmarked) [Compound 66]	–	–	–	–	0	10	0	90% and 98%	0% and 5%
CCCSP(=O)(N(CCC)CCC)N(C)c1cc(Cl)ccc1Cl (centres unmarked) [Compound 34]	–	–	–	–	0	0	0	80% and 93%	0%
CCCN(CCC)P(=O)(Sc1ccccc1Br)N(CCC)CCC [Compound 8]	–	–	–	–	0	0	0	50% and 55%	0%
